Test results reported in patent US20240210394A1, “MICROORGANISM CAPTURE FROM ANTIMICROBIAL-CONTAINING SOLUTION” (MOMENTUM BIOSCIENCE LIMITED, priority 2019, published 2024).

Key:
[1] = system: S. aureus; assay: Blood culture time to positivity (flip time), bead rescue vs no-rescue control; assay type: cell-based; settings: for Flip time: Cefepime 164 mg/L blood; for Difference (Days) compared to BE / Flip time in Days: Vancomycin 500 mg/L blood, antibiotic-labelled line = BC control without beads; for Flip time in Days: bead rescue with named bead type; for Bead Rescue Flip time / Control Flip time in Days: antibiotic 500 mg/L blood
Procedure: An overnight culture of test organism was prepared in blood/broth medium (50:50 blood:broth medium from a BioMerieux SA culture bottle).
Ten-fold serial dilutions of overnight culture was prepared in blood/broth as required.
Antibiotic (abx) was added to whole human blood (in citrate-phosphate-dextrose, CPD, an anticoagulant) at required level.
Whole blood was used as the no-antibiotic control.
Test dilution(s) of organism was added to blood+antibiotic or blood only at 10 μL per mL of blood (sufficient prepared for experiment requirements). 100 μL plate count sample was taken (TO sample).
The inoculated samples were incubated at 37° C. (static) for 2-hour. 100 μL plate count sample was taken (T2 sample).
For the control, 5 mL of spiked blood+abx or blood only was added to blood culture bottles (BioMerieux SA culture bottle) using a vial adapter (West Pharmaceutical Services, Inc. PA, US) and incubated in the automated blood culture cabinet (adapter removed).
For the ‘rescue’ test, 5 mL of spiked blood+abx or blood only was treated with Momentum Capture Beads (Streptavidin-coated, −300 nm beads, Bio estapor, Merk Cat #BE-M 08/0.3) as below: • Momentum Capture Beads diluted in Detergent-free Microbial Binding Buffer (DMBB—Tris+NaCl)—50 μL beads:700 μL DMBB per clean-up • 750 μL of diluted beads added to 50 mL conical centrifuge tube • 5 mL of broth medium added to tube • 5 mL of spiked blood+abx or blood only added to tube • Incubate on ITL TherMix (Integrated Technologies Ltd. Kent, UK), 32.5° C./30 min/1000 rpm—ramped speed protocol • Magnetise on V&P magnet (V&P scientific Inc, CA, US) for 5 min then remove supernatant • Resuspend beads in 1 mL Detergent-free Wash Buffer (DWB—Tris+NaCl) off magnet and transfer to 2 mL Eppendorf flip-top tube on DynaMag-2 magnet (Thermo Fisher Scientific, Life Technologies Ltd. Paisley, UK) • Magnetise for 5 min then remove supernatant • Resuspend beads in 1 mL DWB off magnet then replace on DynaMag-2 magnet • Magnetise for 5 min then remove supernatant • Resuspend beads in 1 mL DWB, add to a fresh, unused blood culture bottle (BioMerieux SA culture bottle) containing standard blood culture growth medium using a vial adapter, and start incubation (adapter removed). • Blood culture bottles are incubated in the automated blood culture cabinet (BacT/ALERT BioMerieux) which records time to positivity. The “Flip” time is when a bottle turns positive as determined by the automated blood culture cabinet. • “Flip” time of each bottle is recorded. • Plate counts (Total Viable Count TVC) are recorded.
(§1) Day 1: Prepare overnight culture of test organism in blood/broth medium (50:50 blood:broth) and incubate at 37° C. in a shaking incubator.
Day 2: Prepare ten-fold serial dilution of overnight culture in blood/broth as required • Antibiotic added to whole blood (defibrinated horse blood) at required level • Whole blood as no-antibiotic control • Test dilution(s) of organism added to blood+antibiotic or blood only at 10 μL per mL of blood (sufficient prepared for experiment requirements) • 100 μL plate count sample taken (TO sample) • 2-hour incubation at 37° C. (static), to mimic organism exposure to antimicrobials in the patient • 100 μL plate count sample taken (T2 sample) • 5 mL of spiked blood+abx or blood only added to blood culture bottle (using vial adapter) and incubation started (adapter removed) • 5 mL of spiked blood+abx or blood only (from same source) treated with Momentum Capture Beads as below: • 1. Momentum Capture Beads diluted in Detergent-free Microbial Binding Buffer (DMBB)—50 μL beads:700 μL DMBB per clean-up • 2. 750 μL of diluted beads added to 50 mL conical centrifuge tube • 3. 5 mL of transfer medium added to tube • 4. 5 mL of spiked blood+abx or blood only added to tube • 5.

[2] = system: E. coli; assay: as above; assay type: cell-based; settings: Cefepime 164 mg/L blood; for Flip time: Bead rescue; for Flip time in Days: Control (FA plus bottle)
Procedure: as §1
Day 2: Prepare ten-fold serial dilution of overnight culture in blood/broth as required and incubate at 37° C. for 2 h for outgrowth.
Add 5 mL of spiked blood+beads (set 1) and 5 mL of spiked blood/Abx+beads (set 3) to blood culture bottles (BioMerieux SA culture bottle) using a vial adapter (West Pharmaceutical Services, Inc. PA, US).
Remove the adaptor and incubate the blood culture bottles in the automated blood culture cabinet (BacT/ALERT BioMerieux) for up to 5 days.
Record the “Flip” time of each bottle or bottle result at the end of 5 days incubation. The “Flip” time is when a bottle turns positive as determined by the automated blood culture cabinet, which records time to positivity.
Day 1: Prepare overnight culture of test organism in blood/broth medium (50:50 blood:broth) and incubate at 37° C. (or 30° C. for C. neoformans) in a shaking incubator.
(or 30° C. for C. neoformans) for 2 h for outgrowth. • Antibiotic added to whole blood (defibrinated horse blood) at required level • Whole blood as no-antibiotic control • Test dilution(s) of organism added to blood+antibiotic or blood only at 10 μL per mL of blood (sufficient prepared for experiment requirements) • 100 μL plate count sample taken (TO sample) • 2-hour incubation (static) at 37° C. (or 30° C. for C. neoformans) • 100 μL plate count sample taken (T2 sample) • 5 mL of spiked blood+abx or blood only added to blood culture bottle (using vial adapter) and incubation started (adapter removed) • 5 mL of spiked blood+abx or blood only (from same source) treated with Momentum Capture Beads as below: • 1. Capture Beads diluted in the relevant Capture Reagent—50 μL beads:700 μL capture reagent per clean-up • 2. 750 μL of diluted beads added to 50 mL conical centrifuge tube • 3. 5 mL of transfer medium added to tube • 4. 5 mL of spiked blood+abx or blood only added to tube • 5. […] Magnetise on V&P magnet for 10 min then remove supernatant • 7. Resuspend beads in 1 mL Detergent-free Wash Buffer (DWB) off magnet and transfer to 2 mL Eppendorf flip-top tube on DynaMag-2 magnet • 8. Magnetise for 3 min then remove supernatant • 9. Resuspend beads in 1 mL Detergent-free Wash Buffer (DWB) off magnet then replace on DynaMag-2 magnet • 10. Magnetise for 3 min then remove supernatant • 11. Resuspend beads in 1 mL DWB, add to new blood culture bottle (using vial adapter) and start incubation (adapter removed)
Momentum Capture Beads diluted in the relevant Capture Reagent—50 μL beads:700 μL capture reagent per clean-up • 2. 750 μL of diluted beads added to 50 mL conical centrifuge tube • 3. 5 mL of transfer medium added to tube • 4. 5 mL of spiked blood+abx or blood only added to tube • 5. […] Magnetise on V&P magnet for 10 min then remove supernatant • 7. Resuspend beads in 1 mL Detergent-free Wash Buffer (DWB) off magnet and transfer to 2 mL Eppendorf flip-top tube on DynaMag-2 magnet • 8. Magnetise for 3 min then remove supernatant • 9. Resuspend beads in 1 mL Detergent-free Wash Buffer (DWB) off magnet then replace on DynaMag-2 magnet • 10. Magnetise for 3 min then remove supernatant • 11. Resuspend beads in 1 mL DWB, add to an unused blood culture bottle (BioMerieux FA+culture bottle) using vial adapter and start incubation (adapter removed)

[3] = system: E. coli; settings: cited from earlier work
[4] = system: Klebsiella pneumoniae; settings: K. pneumoniae; cited from earlier work
[5] = system: Pseudomonas aeruginosa; settings: P. aeruginosa; cited from earlier work
[6] = system: S. aureus; settings: cited from earlier work
[7] = system: S. aureus; assay: Antibiotic breakpoint experiment (plate counts at 0, 2.5 and 5 hours); assay type: cell-based; settings: two different strains of S. aureus, every time point
Procedure: To determine a starting point in terms of antibiotic concentration and microbial load for subsequent experiments. Antibiotic concentration ranges were tested to find appropriate breakpoints for use in experiments. A range of antibiotic concentrations were tested against a given microbial load to determine the concentration at which growth was inhibited but the microorganisms were not killed. This was determined by plate counts at intervals of 0, 2.5 and 5 hours.
• 1. Day 1: Prepare an overnight culture of the test organism in 3 mL of blood/broth solution (1.5 mL defibrinated Horse blood: 1.5 mL transfer Medium). • 2. Day 2: Dissolve antibiotic in required diluent to prepare a suitable stock solution and prepare a dilution series in Nuclease-free Water to cover a final concentration range of 100 to 0.001 and Omg/L. • 3. Dilute the overnight culture of the microorganism to the required point in pre-warmed blood/broth solution. This may require determining for each organism/antibiotic combination, but as a starting dilution 10-4 will be used (giving a final concentration in the sample of 10-5). • 4. Aliquot 980 μL of pre-warmed defibrinated horse blood into the required number of 2 mL flip-top tube. • 5. […]
The concentrations determined by this protocol were used in the following examples unless stated otherwise. […]

Compound: CO/N=C(\C(=O)N[C@@H]1C(=O)N2C(C(=O)[O-])=C(C[N+]3(C)CCCC3)CS[C@H]12)c1csc(N)n1 [Cefepime]
- Flip time ([1]; Bead rescue, 125000 cfu/5 mL blood): 0.46 days
- Flip time ([1]; Bead rescue, 750000 cfu/5 mL blood): 0.39 days
- Flip time ([1]; Control (FA plus bottle), 125000 cfu/5 mL blood): 2.69 days
- Flip time ([1]; Control (FA plus bottle), 750000 cfu/5 mL blood): 2.49 days
- Flip time ([2]; 125000 cfu/5 mL blood): 0.47 days
- Flip time ([2]; 1250000 cfu/5 mL blood): 0.38 days
- Flip time in Days ([2]; 125000 cfu/5 mL blood): Neg
- Flip time in Days ([2]; 1250000 cfu/5 mL blood): Neg
- MIC [3]: ≤1 µg/mL
- MIC [4]: ≤1 µg/mL
- MIC [5]: ≤1 µg/mL
- MIC [6]: ≤4 µg/mL

Compound: CN[C@H](CC(C)C)C(=O)N[C@H]1C(=O)N[C@@H](CC(N)=O)C(=O)N[C@H]2C(=O)N[C@H]3C(=O)N[C@H](C(=O)N[C@H](C(=O)O)c4cc(O)cc(O)c4-c4cc3ccc4O)[C@H](O)c3ccc(c(Cl)c3)Oc3cc2cc(c3O[C@@H]2O[C@H](CO)[C@@H](O)[C@H](O)[C@H]2O[C@H]2C[C@](C)(N)[C@H](O)[C@H](C)O2)Oc2ccc(cc2Cl)[C@H]1O [Vancomycin]
- No-rescue blood culture control result ([1]; Example 23, S. aureus in blood containing 500 mg/L Vancomycin): negative after 5 days
- No-rescue blood culture controls result ([1]; Example 24, S. aureus in blood containing 500 mg/L Vancomycin): negative
- Difference (Days) compared to BE ([1]; 20000 Cfu/mL): Negative
- Flip time in Days ([1]; 20000 Cfu/mL): Negative
- Difference (Days) compared to BE ([1]; 35760 Cfu/mL): Negative
- Flip time in Days ([1]; 35760 Cfu/mL): Negative
- Difference (Days) compared to BE ([1]; 200000 Cfu/mL): Negative
- Flip time in Days ([1]; 200000 Cfu/mL): Negative
- Difference (Days) compared to BE ([1]; 357600 Cfu/mL): Negative
- Flip time in Days ([1]; 357600 Cfu/mL): Negative
- Bead Rescue Flip time ([1]; 1000 cfu/5 mL Blood): 1.15 days
- Control Flip time in Days ([1]; 1000 cfu/5 mL Blood): Neg
- Bead Rescue Flip time ([1]; 100000 cfu/5 mL Blood): 0.66 days
- Control Flip time in Days ([1]; 100000 cfu/5 mL Blood): Neg
- Bead Rescue Flip time ([1]; 1000000 cfu/5 mL Blood): 0.61 days
- Control Flip time in Days ([1]; 1000000 cfu/5 mL Blood): Neg
- Growth in antibiotic dilution series (breakpoint experiment) [7]: grew in every dilution
